This is an account of results in US6673899B2, “Sodium ion-driven chloride /bi-carbonate exchanger” (JCR Pharmaceuticals Co., Ltd., priority 2000, dated 2004).

Assay [1] deals with T1, NCBE (Na+-driven Cl-/HCO3- exchanger) (Mus musculus, UniProt Q5DTL9).
T1 construct: expressed in transfected cells; host or cells: Xenopus laevis oocytes injected with NCBE cRNA (pSD5, SP6 transcript)
T1 sequence (Q5DTL9 1-1088 isoform Q5DTL9-2): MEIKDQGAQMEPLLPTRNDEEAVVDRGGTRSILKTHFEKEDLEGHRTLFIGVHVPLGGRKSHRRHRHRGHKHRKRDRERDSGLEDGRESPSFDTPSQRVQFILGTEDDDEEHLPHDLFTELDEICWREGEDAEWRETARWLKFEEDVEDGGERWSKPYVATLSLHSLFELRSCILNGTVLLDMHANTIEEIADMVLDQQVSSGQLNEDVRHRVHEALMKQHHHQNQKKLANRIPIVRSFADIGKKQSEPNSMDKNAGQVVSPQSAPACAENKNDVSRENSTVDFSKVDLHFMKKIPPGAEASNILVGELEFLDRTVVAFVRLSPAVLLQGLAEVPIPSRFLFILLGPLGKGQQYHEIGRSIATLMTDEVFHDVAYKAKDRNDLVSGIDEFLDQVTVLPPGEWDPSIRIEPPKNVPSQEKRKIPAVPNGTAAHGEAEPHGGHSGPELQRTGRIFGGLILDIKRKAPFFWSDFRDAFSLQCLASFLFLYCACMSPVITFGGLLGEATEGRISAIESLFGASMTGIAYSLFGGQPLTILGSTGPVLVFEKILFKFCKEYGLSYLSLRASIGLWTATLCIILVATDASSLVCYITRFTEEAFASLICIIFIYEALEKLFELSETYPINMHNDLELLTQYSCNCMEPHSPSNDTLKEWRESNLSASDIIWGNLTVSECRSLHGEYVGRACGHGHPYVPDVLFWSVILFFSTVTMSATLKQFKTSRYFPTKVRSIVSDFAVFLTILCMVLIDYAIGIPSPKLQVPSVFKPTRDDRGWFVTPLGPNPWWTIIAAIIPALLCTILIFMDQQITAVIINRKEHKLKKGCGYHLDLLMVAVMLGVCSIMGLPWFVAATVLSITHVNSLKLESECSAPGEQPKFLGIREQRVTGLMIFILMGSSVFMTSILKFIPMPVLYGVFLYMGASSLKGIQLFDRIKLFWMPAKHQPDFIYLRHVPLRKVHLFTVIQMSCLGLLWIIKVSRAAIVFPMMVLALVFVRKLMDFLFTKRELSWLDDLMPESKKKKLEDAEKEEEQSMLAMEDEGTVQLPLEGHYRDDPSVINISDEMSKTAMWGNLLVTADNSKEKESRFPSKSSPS
Description: 22Na+ uptake in NCBE cRNA-injected Xenopus laevis oocytes. Format: cell-based. On the procedure:
(§1) The coding sequence of NCBE in pSD5 was linearized by digestion with FspI and in vitro transcribed with SP6 RNA polymerase as previously described (Wang, C -Z. et al., Biochem. Biophys. Res. Commun., 220:196-202(1996)). Defolliculated oocytes were injected with NCBE cRNA (50 nl, 0.5 μg/μl) or water and incubated in 1×MBS medium (88 mM NaCl, 1 mM KCl, 0.8 mM MgCl2, 0.4 mM CaCl2, 0.3 mM Ca(NO3)2, 2.4 mM NaHCO3 and 7.5 mM Tris, pH 7.4) for 3-5 days at 18° C. before the studies. The oocytes were preincubated for one hr at 18° C. in the standard solution (100 mM NaCl, 2 mM KCl, 1 mM MgCl2, 1 mM CaCl2, and 8 mM NaHCO3, pH 7.4).
(§2) For studies of dependency on extracellular Na^+concentration, the oocytes were then incubated in 1.4 ml of either 1, 10, 30 or 100 mM Na^+solution bubbled with 1.5% CO2, pH 7.4 with 0.074 MBq of ^22Na+ (NEN™ Life Science Products, Boston, Mass.). In each solution, the Na^+in the standard solution was substituted with an equal molar amount of choline. A ten μl aliquot was removed from the incubation solution for later determination of ^22Na^+-specific activity. […]
(§3) The present inventors also examined the effect of DIDS, an inhibitor of anion-transporter, on ^22Na^+uptake. Expression was assessed in the absence or presence of 0.3 mM DIDS. […]

The test system of assay [2] is water-injected oocytes. The experiment in a line: 22Na+ uptake in water-injected Xenopus laevis oocytes (control). Format: cell-based. Particulars: in the presence of 300 μM DIDS, mean ± SE, n=19, 1.6±0.3 in the absence of DIDS. The method, then:
as §1, §2, §3

`O=S(=O)(O)c1cc(N=C=S)ccc1C=Cc1ccc(N=C=S)cc1S(=O)(=O)O` [DIDS, 4,4′-diisothiocyanostilbene-2,2′-disulfonic acid]: the “effect on 22Na+ uptake by NCBE” value in assay [1] (300 μM DIDS, NCBE cRNA-injected oocytes (FIG. 5)) is “partially inhibit”. The “22Na+ uptake” value was determined as 6.0±0.7 nmol/oocyte/hour in assay [1] (NCBE cRNA-injected oocytes, in the presence of 300 μM DIDS, 15 min, standard solution, mean ± SE, n=14, 31.4±2.1 in the absence of DIDS) and 2.1±0.4 nmol/oocytes/hour in assay [2].
